Each block holds one molecule with its values, some of them ahead of it.
Legend:
[1] = molecular target: Human α2δ-1 subunit of Cav2.2 calcium channel (Homo sapiens, UniProt P54289); experiment: Human α2δ-1 subunit of Cav2.2 calcium channel assay ([3H]-gabapentin binding); settings: binding to the α2δ-1 subunit of voltage-gated calcium channels, expressed as Ki class; + also covers inhibition between 1% and 50%
How it was run: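 Affinity (Ki, five concentrations) or % inhibition at 1 or 10 μM, from displacement of 15 nM [3H]-gabapentin on human α2δ-1 membranes. Incubation 60 min, 27° C., Hepes-KOH 10 mM pH 7.4; 10 μM pregabalin defined non-specific binding; bound radioactivity counted after GF/C filtration.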

Human σ1 receptor = molecular target: T1, Human σ1 receptor (Homo sapiens, UniProt Q99720); experiment: Human σ1 receptor radioligand assay ([3H](+)-pentazocine binding); settings: binding to the σ1 receptor, expressed as Ki class; + also covers inhibition between 1% and 50%
T1 construct: expressed in transfected cells; host or cells: HEK-293
How it was run: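 Ki was derived from five test concentrations, or % inhibition was measured at a single 1 or 10 μM dose, against 5 nM [3H](+)-pentazocine. Incubation was 120 min at 37° C in 50 mM Tris-HCl pH 8 with 7 μg HEK-293 membranes, and 10 μM haloperidol set non-specific binding. Bound radioactivity was counted after filtration.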

T1 sequence (Q99720 whole entry): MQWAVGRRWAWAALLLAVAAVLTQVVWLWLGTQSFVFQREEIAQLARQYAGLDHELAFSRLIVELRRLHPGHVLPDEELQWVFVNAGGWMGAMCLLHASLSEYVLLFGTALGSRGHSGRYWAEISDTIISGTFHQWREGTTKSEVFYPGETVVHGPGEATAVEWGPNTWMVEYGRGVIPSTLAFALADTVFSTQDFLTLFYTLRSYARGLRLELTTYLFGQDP
Human α2δ-1 subunit of Cav2.2 calcium channel, sequence (P54289 25-1103): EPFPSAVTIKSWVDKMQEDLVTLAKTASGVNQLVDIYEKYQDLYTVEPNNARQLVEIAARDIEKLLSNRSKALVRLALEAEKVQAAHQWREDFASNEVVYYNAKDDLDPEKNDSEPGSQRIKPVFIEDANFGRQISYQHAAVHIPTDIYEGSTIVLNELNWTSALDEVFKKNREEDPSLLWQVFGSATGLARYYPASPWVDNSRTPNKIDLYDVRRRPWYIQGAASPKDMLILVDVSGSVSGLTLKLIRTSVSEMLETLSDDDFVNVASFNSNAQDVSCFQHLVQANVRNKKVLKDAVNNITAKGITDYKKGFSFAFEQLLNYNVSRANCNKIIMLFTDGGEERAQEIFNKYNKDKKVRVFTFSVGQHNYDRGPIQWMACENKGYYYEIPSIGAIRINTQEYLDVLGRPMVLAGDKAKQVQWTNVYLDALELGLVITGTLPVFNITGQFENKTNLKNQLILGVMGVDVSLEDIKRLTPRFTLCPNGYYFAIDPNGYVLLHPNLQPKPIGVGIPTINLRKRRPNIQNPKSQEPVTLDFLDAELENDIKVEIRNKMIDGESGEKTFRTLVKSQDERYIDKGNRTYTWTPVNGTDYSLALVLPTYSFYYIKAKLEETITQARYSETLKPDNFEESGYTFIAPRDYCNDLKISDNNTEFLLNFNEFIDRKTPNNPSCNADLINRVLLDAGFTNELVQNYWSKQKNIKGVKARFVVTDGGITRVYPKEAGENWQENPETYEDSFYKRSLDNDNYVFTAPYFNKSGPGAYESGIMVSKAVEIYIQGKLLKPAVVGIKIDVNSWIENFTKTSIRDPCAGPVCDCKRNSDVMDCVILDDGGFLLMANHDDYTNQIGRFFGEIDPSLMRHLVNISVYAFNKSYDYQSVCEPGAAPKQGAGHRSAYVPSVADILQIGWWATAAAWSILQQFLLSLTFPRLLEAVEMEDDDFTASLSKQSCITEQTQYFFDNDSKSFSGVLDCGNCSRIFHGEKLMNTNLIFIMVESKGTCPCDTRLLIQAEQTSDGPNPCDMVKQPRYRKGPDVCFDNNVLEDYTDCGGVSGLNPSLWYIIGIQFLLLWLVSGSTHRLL

Compound: CCC[C@@H](c1nc2ccc(Cl)cc2c(=O)n1CC)N1CCN(C)C[C@H](C)C1 [Example 73, 6-chloro-2-((S)-1-((S)-4,6-dimethyl-1,4-diazepan-1-yl)butyl)-3-ethylquinazolin-4(3H)-one]
- Ki [1]: > 5000 nM
- Ki (Human σ1 receptor): > 1000 nM

Compound: CCC[C@@H](c1nc2ccc(Cl)cc2c(=O)n1CC)N1CCN(C)C[C@@H](C)C1 [Example 74, 6-chloro-2-((S)-1-((R)-4,6-dimethyl-1,4-diazepan-1-yl)butyl)-3-ethylquinazolin-4(3H)-one]
- Ki [1]: > 5000 nM
- Ki (Human σ1 receptor): > 1000 nM

Compound: CCC[C@H](c1nc2ccc(Cl)cc2c(=O)n1CC)N1CCN(C)C[C@H](C)C1 [Example 75, 6-chloro-2-((R)-1-((S)-4,6-dimethyl-1,4-diazepan-1-yl)butyl)-3-ethylquinazolin-4(3H)-one]
- Ki [1]: < 500 nM
- Ki (Human σ1 receptor): 500 to 1000 nM

Compound: CCCC(c1nc2cc(F)c(Br)cc2c(=O)n1C)N1CCCN(C)CC1 (stereo not drawn) [Example 77, 6-bromo-7-fluoro-3-methyl-2-(1-(4-methyl-1,4-diazepan-1-yl)butyl)quinazolin-4(3H)-one]
- Ki [1]: 500 to 5000 nM
- Ki (Human σ1 receptor): < 500 nM

Compound: CCCC(c1nc2ccc(F)c(F)c2c(=O)n1CC)N1CCCN(CC)CC1 (stereo not drawn) [Example 78, 3-ethyl-2-(1-(4-ethyl-1,4-diazepan-1-yl)butyl)-5,6-difluoroquinazolin-4(3H)-one]
- Ki [1]: 500 to 5000 nM
- Ki (Human σ1 receptor): < 500 nM

Compound: CCCC(c1nc2ccc(Cl)cc2c(=O)n1CCC)N1CCCN(CC)CC1 (stereo not drawn) [Example 79, 6-chloro-2-(1-(4-ethyl-1,4-diazepan-1-yl)butyl)-3-propylquinazolin-4(3H)-one]
- Ki [1]: < 500 nM
- Ki (Human σ1 receptor): < 500 nM

Compound: CCCC(c1nc2ccc(Br)cc2c(=O)n1CC)N1CCN2CCC1CC2 (stereo not drawn) [Example 80, 2-(1-(1,4-diazabicyclo[3.2.2]nonan-4-yl)butyl)-6-bromo-3-ethylquinazolin-4(3H)-one]
- Ki [1]: > 5000 nM
- Ki (Human σ1 receptor): > 1000 nM

Compound: CCCC(c1nc2ccc(F)c(F)c2c(=O)n1CC)N1CCCNCC1 (stereo not drawn) [Example 81, 2-(1-(1,4-diazepan-1-yl)butyl)-3-ethyl-5,6-difluoroquinazolin-4(3H)-one]
- Ki [1]: < 500 nM
- Ki (Human σ1 receptor): 500 to 1000 nM

Compound: CCCC(c1nc2ccc(Br)c(Cl)c2c(=O)n1CC)N1CCCN(CC)CC1 (stereo not drawn) [Example 83, 6-bromo-5-chloro-3-ethyl-2-(1-(4-ethyl-1,4-diazepan-1-yl)butyl)quinazolin-4(3H)-one]
- Ki [1]: > 5000 nM
- Ki (Human σ1 receptor): < 500 nM

Compound: CCCC(c1nc2cc(Cl)c(Cl)cc2c(=O)n1CC)N1CCCN(C)CC1 (stereo not drawn) [Example 87, 6,7-dichloro-3-ethyl-2-(1-(4-methyl-1,4-diazepan-1-yl)butyl)quinazolin-4(3H)-one]
- Ki [1]: < 500 nM
- Ki (Human σ1 receptor): < 500 nM

The next lines start with the values.

- Ki [1]: < 500 nM
- Ki (Human σ1 receptor): 500 to 1000 nM
Compound: CCC[C@H](c1nc2ccc(Cl)cc2c(=O)n1CC)N1CCN(C)C[C@@H](C)C1 [Example 76, 6-chloro-2-((R)-1-((R)-4,6-dimethyl-1,4-diazepan-1-yl)butyl)-3-ethylquinazolin-4(3H)-one]

- Ki [1]: 500 to 5000 nM
- Ki (Human σ1 receptor): 500 to 1000 nM
Compound: CCCC(c1nc2ccc(Br)c(Cl)c2c(=O)n1CC)N1CCCNCC1 (stereo not drawn) [Example 82, 2-(1-(1,4-diazepan-1-yl)butyl)-6-bromo-5-chloro-3-ethylquinazolin-4(3H)-one]

- Ki [1]: 500 to 5000 nM
- Ki (Human σ1 receptor): < 500 nM
Compound: CCCC(c1nc2ccc(Br)cc2c(=O)n1C)N1CCCN(C)CC1 (stereo not drawn) [Example 84, 6-bromo-3-methyl-2-(1-(4-methyl-1,4-diazepan-1-yl)butyl)quinazolin-4(3H)-one]

- Ki [1]: > 5000 nM
- Ki (Human σ1 receptor): < 500 nM
Compound: CCCC(c1nc2ccc(Br)cc2c(=O)n1C)N1CCCN(CC)CC1 (stereo not drawn) [Example 85, 6-bromo-2-(1-(4-ethyl-1,4-diazepan-1-yl)butyl)-3-methylquinazolin-4(3H)-one]

- Ki [1]: > 5000 nM
- Ki (Human σ1 receptor): > 1000 nM
Compound: CCCC(c1nc2cccnc2c(=O)n1CC)N1CCCN(C)CC1 (stereo not drawn) [Example 86, 3-ethyl-2-(1-(4-methyl-1,4-diazepan-1-yl)butyl)pyrido[3,2-d]pyrimidin-4(3H)-one]
